Experimental data as given in publication PMC11352258, “The Influence of Betulin and Its Derivatives on Selected Colorectal Cancer Cell Lines’ Viability and Their Antioxidant Systems” (Cells, 2024).
Values joined by “and” are separate entries in the source; they are usually repeats but may differ in a detail not shown here. Equal entries are not always repeated.

Key:
RKO cells [1] = experiment: MTT cytotoxicity assay, RKO; settings: 24 h; for viability at 10 µg/mL / IC50: Homo sapiens; for IC50: read-out: IC50 value
Procedure: (§1) Six colorectal cancer cell lines, RKO, HT29, DLD-1, HCT116, Caco2 and SW1116 (CRL-2577, HTB-38, CCL-221, CCL-247, HTB-37, CCL-233; ATCC, Manassas, VA, USA, respectively, for CRC lines), and one normal cell line, CCD-841CoN (CRL-1790, ATCC, USA), were routinely cultured at 37 °C in a 5% CO2 incubator (Direct Heat CO2; Thermo Scientific, Waltham, MA, USA) in cell line-appropriate culture medium according to the manufacturer’s recommendations. Eagle’s minimum essential medium (EMEM) was used to culture RKO, Caco2 and CCD-841CoN lines, while McCoy’s 5A medium was used for HT29 and HCT116 lines. DLD-1 cells were grown in RPMI-1640 medium, whereas SW1116 cells were maintained in Leibovitz’s L-15 medium. All culture media were supplemented with 10% fetal bovine serum (EuroClone, Milan, Italy), and gentamycin at the concentration […] (BioWhittaker, Lonza, Basel, Switzerland) was also applied to prevent culture contamination.
(§2) For this purpose, cells were exposed to the test compound for 24 h at concentrations of 0.1, 1, 10, 20, 50 and 100 μg/mL. Control cells were not treated with the compounds. MTT (0.25 mg/mL) was then added to the cultures and incubated for 3 h at 37 °C. After a time, the cells were washed with phosphate buffered saline (PBS), and next, formazan dye was dissolved in 100 μL of dimethyl sulfoxide (Sigma-Aldrich, St Louis, MO, USA). Absorbance was measured at 540 nm using a Wallac 1420 VICTOR microplate reader (PerkinElmer, Waltham, MA, USA).

SW1116 cells [2] = experiment: MTT cytotoxicity assay, SW1116; settings: for viability at 10 µg/mL / IC50: Homo sapiens, SW 1116, 24 h; for IC50: read-out: IC50 value
Procedure: as §1, §2

[3] = tested on: colorectal cancer cell lines RKO, HT29, DLD-1, HCT116, Caco2 and SW1116; experiment: MTT cytotoxicity assay, statements over all tested cell lines; settings: MTT, 24 h
Procedure: as §1, §2

Caco2 cells = experiment: MTT cytotoxicity assay, Caco2; format: cell-based; settings: Homo sapiens, Caco-2; Caco2, MTT, 24 h; read-out: IC50 value
DLD-1 cells = experiment: MTT cytotoxicity assay, DLD-1; format: cell-based; settings: Homo sapiens; DLD-1, MTT, 24 h; read-out: IC50 value
Excerpt: (§3) Control cells were not treated with the compounds.

HT29 cells = experiment: MTT cytotoxicity assay, HT29; format: cell-based; settings: Homo sapiens, HT-29; HT29, MTT, 24 h; read-out: IC50 value
Excerpt: as §3

[4] = tested on: catalase (CAT) activity in SW1116 cells; experiment: CAT activity in SW1116 cells; format: cell-based; settings: SW1116, 10 µg/mL, 24 h
Procedure: (§4) In addition, two colorectal cancer cell lines, RKO and SW1116, were distinguished based on a different response to the EB5 derivative. To perform subsequent analyses, the selected CRC lines were treated with EB5 derivative at a concentration of 10 µg/mL for 24 h. Untreated cells were used as a negative control. Three biological replicates were performed.
(§5) To examine the antioxidant capacity of the cells as well as lipid peroxidation and to evaluate the activity of antioxidant enzymes, the cells were suspended in lysis buffer (containing 4 mg of […]™ Protease Inhibitor Cocktail and 10 µL of Phosphatase Inhibitor Cocktail 3 in 1 mL of PBS; Sigma-Aldrich, St Louis, MO, USA). Subsequently, the cells were placed in liquid nitrogen for 30 min, followed by storage at −80 °C until further analysis.
Superoxide dismutase (SOD), glutathione peroxidase (GPx) and catalase (CAT) activities were assessed using a commercially purchased Cayman Chemicals Superoxide Dismutase Assay Kit, a Cayman Chemicals Glutathione Peroxidase Assay Kit and a Catalase Assay Kit (Cayman Chemicals, Ann Arbor, MI, USA), respectively, according to the manufacturer’s recommendations and based on a previous study. The cell supernatant from previously prepared cell lysates of the tested lines provided material for further analyses. The level of change in absorbance was measured spectrophotometrically at the appropriate wavelength for the assay, i.e., for SOD in the range 440–460 nm, for GPx at 340 nm and for CAT at 540 nm.

HCT116 cells = experiment: MTT cytotoxicity assay, HCT116; format: cell-based; settings: Homo sapiens; HCT 116, MTT, 24 h; read-out: IC50 value
Excerpt: as §3

SW1116 cells [5] = experiment: Lipid peroxidation, MDA assay, SW1116; format: cell-based; settings: SW1116, 10 µg/mL, 24 h
Procedure: (§6) In addition, two colorectal cancer cell lines, RKO and SW1116, were distinguished based on a different response to the EB5 derivative. […] Untreated cells were used as a negative control. Three biological replicates were performed. To examine the antioxidant capacity of the cells as well as lipid peroxidation and to evaluate the activity of antioxidant enzymes, the cells were suspended in lysis buffer (containing 4 mg of […]™ Protease Inhibitor Cocktail and 10 µL of Phosphatase Inhibitor Cocktail 3 in 1 mL of PBS; Sigma-Aldrich, St Louis, MO, USA). Subsequently, the cells were placed in liquid nitrogen for 30 min, followed by storage at −80 °C until further analysis. To assess the level of lipid peroxidation, the Malondialdehyde Assay Kit (Aoxre BioSciences, Burlingame, CA, USA) was used, according to the manufacturer’s recommendations.

[6] = tested on: CAT gene expression in RKO cells; experiment: CAT mRNA, real-time RT-qPCR, RKO; format: cell-based; settings: 10 µg/mL, 24 h
Procedure: as §4
(§7) Total RNA from treated cells was extracted using TRIzol reagent (Sigma-Aldrich, St Louis, MO, USA) according to the manufacturer’s instructions. The obtained RNA was assessed qualitatively and quantitatively by agarose gel electrophoresis and by spectrophotometric measurement using MaestroNano MN-913 (MaestroGen Inc., Las Vegas, NV, USA), respectively. The obtained extracts provided the starting material for the assessment of genes changes at the mRNA level.
(§8) Changes in the expression of SOD1, SOD2, CAT and GPX3 genes involved in antioxidant systems were assessed by real-time RT-qPCR using a LightCycler® 480 System apparatus (Roche, Basel, Switzerland). A commercially purchased GoTaq® 1-Step RT-qPCR System (Promega, Madison, WI, USA) was used, while the primers and reaction conditions were the same as in the previous study performed by Kruszniewska-Rajs et al.. GAPDH was used as the reference gene. The mRNA expression level studied genes were then determined by the 2^−ΔCt relative quantification method. All samples were tested in triplicate. The specificity of the reaction was evaluated based on the melting temperature curve, as well as using electrophoresis of the amplification products in a 2% agarose gel.

[7] = tested on: glutathione peroxidase (GPx) activity in RKO cells; experiment: GPx activity in RKO cells; format: cell-based; settings: 10 µg/mL, 24 h
Procedure: as §4, §5
(§9) Superoxide dismutase (SOD), glutathione peroxidase (GPx) and catalase (CAT) activities were assessed using a commercially purchased Cayman Chemicals Superoxide Dismutase Assay Kit, a Cayman Chemicals Glutathione Peroxidase Assay Kit and a Catalase Assay Kit (Cayman Chemicals, Ann Arbor, MI, USA), respectively, according to the manufacturer’s recommendations and based on a previous study. […] The level of change in absorbance was measured spectrophotometrically at the appropriate wavelength for the assay, i.e., for SOD in the range 440–460 nm, for GPx at 340 nm and for CAT at 540 nm.

[8] = tested on: superoxide dismutase (SOD) activity in RKO cells; experiment: SOD activity in RKO cells; format: cell-based; settings: 10 µg/mL, 24 h
Procedure: as §4, §5, §9

RKO cells [9] = experiment: Lipid peroxidation, MDA assay, RKO; format: cell-based; settings: 10 µg/mL, 24 h
Procedure: as §6

[10] = tested on: SOD2 gene expression in SW1116 cells; experiment: SOD2 mRNA, real-time RT-qPCR, SW1116; format: cell-based; settings: SW1116, 10 µg/mL, 24 h
Procedure: as §4, §7, §8

[11] = tested on: superoxide dismutase (SOD) activity in SW1116 cells; experiment: SOD activity in SW1116 cells; format: cell-based; settings: SW1116, 10 µg/mL, 24 h
Procedure: as §4, §5, §9

RKO cells [12] = experiment: Total antioxidant capacity (ABTS+), RKO; format: cell-based; settings: 10 µg/mL, 24 h
Procedure: as §4, §5
The ABTS+ radical cation was used to assess the total antioxidant capacity (TAC) of the tested cells. The principle of the method is based on the reduction of the formed blue-green chromophore ABTS+ as a result of the reaction of ABTS (Sigma-Aldrich, St Louis, MO, USA) with potassium persulphate (Sigma-Aldrich, St Louis, MO, USA). The degree of decolorization of the ABTS+ radical cation depends on the antioxidant activity of the cells and is determined as a function of concentration and time in relation to Trolox reactivity (TEAC-Trolox equivalent antioxidant capacity).

[13] = tested on: SOD1 gene expression in SW1116 cells; experiment: SOD1 mRNA, real-time RT-qPCR, SW1116; format: cell-based; settings: SW1116, 10 µg/mL, 24 h
Procedure: as §4, §7, §8

[14] = tested on: SOD1 gene expression in RKO cells; experiment: SOD1 mRNA, real-time RT-qPCR, RKO; format: cell-based; settings: 10 µg/mL, 24 h
Procedure: as §4, §7, §8

[15] = tested on: CAT gene expression in SW1116 cells; experiment: CAT mRNA, real-time RT-qPCR, SW1116; format: cell-based; settings: SW1116, 10 µg/mL, 24 h
Procedure: as §4, §7, §8

CCD-841CoN cells = experiment: cells; format: cell-based; settings: Homo sapiens; CCD-841CoN normal cells, MTT, 24 h; read-out: IC50 value
Excerpt: as §3

SMILES | viability at 10 µg/mL (RKO cells [1]) | IC50 (RKO cells [1]) | viability at 10 µg/mL (SW1116 cells [2]) | IC50 (SW1116 cells [2]) | IC50 (Caco2 cells) | IC50 (DLD-1 cells) | IC50 (HT29 cells) | catalase activity compared to the control [4] | IC50 (HCT116 cells) | MDA level compared to the control (SW1116 cells [5]) | CAT gene expression vs. untreated cells [6] | increase in MDA levels compared to the control cells (RKO cells [9]) | also measured
O=c1[nH]cc(F)c(=O)[nH]1 [5FU, 5-fluorouracil] | ≥ 50% | > 100 µg/mL and > 769 µM | ≥ 50% | > 100 µg/mL and > 769 µM | > 100 µg/mL and > 769 µM | > 100 µg/mL and > 769 µM | > 100 µg/mL and > 769 µM | higher catalase activity | > 100 µg/mL and > 769 µM | did not cause changes | significant decrease in expression | about 62.2% | cytotoxic effect compared with the other tested compounds [3]: weaker; catalase activity compared to cells treated with EB5 [4]: higher catalase activity; catalase activity compared to cells treated with betulin [4]: higher catalase activity; GPx activity vs. cells treated with EB5 [7]: slight increase; SOD activity compared to cells treated with betulin [8]: modest increase
C=C(C)[C@@H]1CC[C@]2(CO)CC[C@]3(C)[C@H](CC[C@@H]4[C@@]5(C)CC[C@H](O)C(C)(C)[C@@H]5CC[C@]43C)[C@@H]12 [Betulin, lup-20(29)-ene-3β,28-diol] | ≥ 50% | 11.2 µg/mL and 25.2 µM | ≥ 50% | 9.77 µg/mL and 23.1 µM | 11.2 µg/mL and 26.5 µM | 4.29 µg/mL and 10.2 µM | 8.49 µg/mL and 20.1 µM | did not cause changes | 4.63 µg/mL and 11 µM | did not cause changes | No statistically significant changes | about 73.1% | SOD2 gene expression vs. cisplatin [10]: Decreased SOD2 gene expression; increase in SOD activity compared to the untreated cells [11]: about 32.3%; reduction in TAC compared to the control cells (RKO cells [12]): about 26.4%; decrease in the viability (RKO cells [1]; 10 µg/mL): ≤ 50%; SOD1 gene expression vs. EB5 derivative [13]: statistically significant difference; SOD1 gene expression vs. cisplatin [13]: statistically significant difference; SOD1 gene expression vs. non-treated cells [13]: statistically significant decrease in mRNA expression; SOD1 gene expression vs. non-treated cells ([13]; listed as B): statistically significant difference; SOD1 gene expression vs. cisplatin-treated cells [14]: decrease in SOD1 gene expression; decrease in the viability (SW1116 cells [2]; SW1116, 10 µg/mL, 24 h): ≤ 50%; CAT gene expression vs. EB5 derivative [15]: decrease in expression was higher; CAT gene expression vs. cisplatin [15]: decrease in expression was higher; CAT gene expression vs. untreated cells [15]: statistically significant decrease in CAT gene expression; IC50 (CCD-841CoN cells): 5.26 µg/mL and 12.4 µM
